Where two headings read alike, the source gives them in different places.
What was measured:
[1] = system: HCT116 cells; test: MTT assay; format: cell-based; details: Homo sapiens
Procedure, shortened: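 Cells plated one day before dosing, then exposed to compound 72 h at 37 °C, 5% CO2. MTT at 0.5 mg/ml final for 4 h, solubilized in DMF/SDS buffer pH 4.7; OD converted to cell number from a standard growth curve.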

[2] = target: HDAC-1 (Homo sapiens, UniProt Q13547); test: Human HDAC-1 enzyme inhibition, Assay 2 (Boc-Lys(Ac)-AMC, Fluor-de-Lys fluorescence; compounds 604-617); format: biochemical; details: read-out: HDAC1 IC50
HDAC-1, sequence (Q13547 whole entry): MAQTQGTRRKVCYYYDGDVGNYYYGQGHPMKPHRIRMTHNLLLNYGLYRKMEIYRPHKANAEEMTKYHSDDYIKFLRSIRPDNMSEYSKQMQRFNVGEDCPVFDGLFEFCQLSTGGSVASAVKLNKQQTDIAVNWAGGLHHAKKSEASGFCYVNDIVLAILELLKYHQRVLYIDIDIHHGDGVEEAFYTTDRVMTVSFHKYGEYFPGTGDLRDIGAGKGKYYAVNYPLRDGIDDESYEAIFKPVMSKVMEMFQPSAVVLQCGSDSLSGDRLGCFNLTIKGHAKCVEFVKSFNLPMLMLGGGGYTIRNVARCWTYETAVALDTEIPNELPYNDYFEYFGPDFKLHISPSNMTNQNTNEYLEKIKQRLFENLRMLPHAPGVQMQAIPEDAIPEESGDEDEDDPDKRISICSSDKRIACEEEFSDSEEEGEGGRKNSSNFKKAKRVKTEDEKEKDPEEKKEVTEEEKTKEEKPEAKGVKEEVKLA
Description: Assay 2. The following protocol was also used to assay the compounds of the invention. In the assay, the buffer used was 25 mM HEPES, pH 8.0, 137 mM NaCl, 2.7 mM […], 1 mM MgCl2 and the substrate was Boc-Lys(Ac)-AMC in a 50 mM stock solution in DMSO. The enzyme stock solution was 4.08 μg/mL in buffer. The compounds were pre-incubated (2 μl in DMSO diluted to 13 μl in buffer for transfer to assay plate) with enzyme (20 μl of 4.08 μg/ml) for 10 minutes at room temperature (35 μl pre-incubation volume). The mixture was pre-incubated for 5 minutes at room temperature. The reaction was started by bringing the temperature to 37° C. and adding […] substrate. Total reaction volume was 50 μl. […] A plate was incubated in the dark for 10 minutes at room temperature before reading (λEx=360 nm, λEm=470 nm, Cutoff filter at 435 nm). Assay 2 was used to measure HDAC activity of compounds 604-617 (Table 5). HDAC activity of the remaining compounds was measured by assay 1.

[3] = system: HCT116 human colorectal carcinoma cells; test: Antitumor activity in HCT116 human colorectal tumor xenograft model in vivo; design: species or system BALB/c nude mice; details: Mus musculus, ip, HCT 116 colorectal tumor model, read-out: % Inhibition of Tumor Growth; for inhibition in vivo at 20 mg/kg: 20 mg/kg i.p.; for inhibition in vivo at 40 mg/kg: 40 mg/kg i.p.
Description: Eight to ten week old female BALB/c nude mice (Taconic Labs, Great Barrington, N.Y.) were injected subcutaneously in the flank area with 2×10^6 preconditioned HCT116 human colorectal carcinoma cells. Preconditioning of these cells was done by a minimum of three consecutive tumor transplantations in the same strain of nude mice. Subsequently, tumor fragments of approximately 30 mgs were excised and implanted subcutaneously in mice, in the left flank area, under Forene anesthesia (Abbott Labs, Geneve, Switzerland). When the tumors reached a mean volume of 100 mm^3, the mice were treated intravenously, subcutaneously, or intraperitoneally by daily injection, with a solution of the histone deacetylase inhibitor in an appropriate vehicle, such as PBS, DMSO/water, or Tween 80/water, at a starting dose of 10 mg/kg. The optimal dose of the HDAC inhibitor was established by dose response experiments according to standard protocols. Tumor volume was calculated every second day post infusion according to standard methods (e.g., Meyer et al., Int. J. Cancer 43: 851-856 (1989)). […] FIGS. 2-10 show the results of additional compounds tested.

[4] = system: acetylated histone H-4 in T24 human bladder cancer cells; test: Histone H4 acetylation in whole cells by immunoblots; format: cell-based; details: 16 h
Procedure, shortened: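 T24 cells were treated with HDAC inhibitors for 16 h; […] total histone protein was resolved by SDS/PAGE and immunoblotted with polyclonal anti-acetylated H4 antibody. ECL detection, with signal quantified by densitometry.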

[5] = target: T1, cloned recombinant human HDAC-1 (Homo sapiens, UniProt Q13547); test: Human HDAC-1 enzyme inhibition, Assay 1 ([3H]-acetylated histone substrate, scintillation counting); format: biochemical; details: read-out: Human HDAC-1 IC50
T1 construct: made in house; host or cells: Baculovirus insect cell expression system
T1 sequence (Q13547 whole entry): as above
Procedure, shortened: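 Recombinant human HDAC-1 from baculovirus-infected insect cells, preincubated with compound 30 min at 4° C. before reaction. Released [3H]-acetic acid extracted with ethyl acetate and counted by scintillation. IC50 taken from dose-response curves as concentration giving half-maximal inhibition.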

[6] = HCT-116, 72 h, Table 5E, HCT116 cells, 72 hours
[7] = T-24, Table 5E, read-out: H4 Ac (T24) EC50
[8] = HCT-116, 72 h, Table 5a, HCT116 cells, 72 hours
[9] = T-24, Table 5a, read-out: H4Ac (T24) EC50
[10] = HCT-116, 72 h, Table 5F, HCT116 cells, 72 hours
[11] = T-24, Table 5F, read-out: H4 Ac (T24) EC50

## Nc1ccccc1NC(=O)c1ccc(N2CC[C@@H](Oc3cccnc3)C2)cc1 [compound 607, (R)-N-(2-aminophenyl)-4-(3-(pyridin-3-yloxy)pyrrolidin-1-yl)benzamide]
[1]; HCT-116, HCT116 cells
  IC50: 1000 nM
[2]
  IC50: 639 nM

## Nc1ccccc1NC(=O)c1ccc(N2CC[C@@H](Nc3ccccc3)C2)cc1 [compound 609, (R)-N-(2-aminophenyl)-4-(3-(phenylamino)pyrrolidin-1-yl)benzamide]
[1]; HCT-116, HCT116 cells
  IC50: 2000 nM
[2]
  IC50: 1220 nM

## Nc1ccccc1NC(=O)c1ccc(Cn2cnc3ccccc3c2=O)cc1 [Cpd 154, N-(2-Amino-phenyl)-4-(4-oxo-4H-quinazolin-3-ylmethyl)-benzamide]
[1]; [6]
  IC50: 400 nM
[3]
  inhibition in vivo at 20 mg/kg: 23%
[4]; [7]
  EC50: < 1000 nM
[5]; Table 5E
  IC50: 300 nM

## Nc1ccccc1NC(=O)c1ccc(N2CC[C@H](Oc3ccccc3)C2)cc1 [compound 610, (S)-N-(2-aminophenyl)-4-(3-phenoxypyrrolidin-1-yl)benzamide]
[1]; HCT-116, HCT116 cells
  IC50: 750 nM
[2]
  IC50: 266 nM

## Nc1ccccc1NC(=O)c1ccc(N2CC[C@H](Oc3ccc([N+](=O)[O-])cc3)C2)cc1 [compound 616, (S)-N-(2-aminophenyl)-4-(3-(4-nitrophenoxy)pyrrolidin-1-yl)benzamide]
[1]; HCT-116, HCT116 cells
  IC50: 700 nM
[2]
  IC50: 107 nM

## Nc1ccccc1NC(=O)c1ccc(N2CC[C@H](Oc3ccc(C(=O)O)cc3)C2)cc1 [compound 612, (S)-4-(1-(4-(2-aminophenylcarbamoyl)phenyl)pyrrolidin-3-yloxy)benzoic acid]
[1]; HCT-116, HCT116 cells
  IC50: 39000 nM
[2]
  IC50: 815 nM

## COc1cc(NCc2ccc(/C=C/C(=O)Nc3ccccc3N)cc2)cc(OC)c1OC [Cpd 106, N-(2-aminophenyl)-3-{4-[(3,4,5-trimethoxy-phenylamino)-methyl]-phenyl}-acrylamide]
[1]; HCT-116, 72 h, Table 5c, HCT116 cells, 72 hours
  IC50: 2000 nM
[3]
  inhibition in vivo at 20 mg/kg: 80%
[4]; T-24, Table 5c, read-out: H4Ac (T24) EC50
  EC50: 1000 nM

## Nc1nc(NCc2ccc(C(=O)Nc3ccccc3N)cc2)nc(N2CCCCC2)n1 [Cpd 15, N-(2-amino-phenyl)-4-[(4-amino-6-piperidin-1-yl [1,3,5]-triazin-2-ylamino)-methyl]-benzamide]
[1]; [8]
  IC50: 200 nM
[3]
  inhibition in vivo at 40 mg/kg: 26%
[4]; [9]
  EC50: 3000 nM
[5]; Table 5a
  IC50: 500 nM

## COC(=O)c1ccc(O[C@H]2CCN(c3ccc(C(=O)Nc4ccccc4N)cc3)C2)cc1 [compound 611, (S)-methyl-4-(1-(4-(2-aminophenylcarbamoyl)phenyl)pyrrolidin-3-yloxy)benzoate]
[1]; HCT-116, HCT116 cells
  IC50: 600 nM
[2]
  IC50: 97.6 nM

## Nc1nc(NCc2ccc(C(=O)Nc3ccccc3N)cc2)nc(NC2CCCC2)n1 [Cpd 16]
[1]; [8]
  IC50: 400 nM
[3]
  inhibition in vivo at 40 mg/kg: 50%
[4]; [9]
  EC50: 1000 nM
[5]; Table 5a
  IC50: 1000 nM

## Nc1ccccc1NC(=O)c1ccc(CSc2nc3ccccc3[nH]2)cc1 [Cpd 126, N-(2-Amino-phenyl)-4-(1H-benzimidazol-2-ylsulfanylmethyl)-benzamide]
[1]; [6]
  IC50: 200 nM
[3]
  inhibition in vivo at 40 mg/kg: 62%
[4]; [7]
  EC50: 1000 nM

## COc1ccc(CCNc2ccc(C(=O)Nc3ccccc3N)cn2)cc1 [Cpd 168]
[1]; [6]
  IC50: 800 nM
[3]
  inhibition in vivo at 40 mg/kg: 26%
[4]; [7]
  EC50: 2000 nM

## Nc1ccccc1NC(=O)c1ccc(N2CC[C@H](Oc3ccc(Oc4ccccc4)cc3)C2)cc1 [compound 615, (S)-N-(2-aminophenyl)-4-(3-(4-phenoxyphenoxy)pyrrolidin-1-yl)benzamide]
[1]; HCT-116, HCT116 cells
  IC50: 4000 nM
[2]
  IC50: 1380 nM

## COc1ccc(Nc2ccnc(NCc3ccc(C(=O)Nc4ccccc4N)cc3)n2)cc1OC [Cpd 442, N-(2-Amino-phenyl)-4-{[4-(3,4-dimethoxy-phenylamino)-pyrimidin-2-ylamino]-methyl}-benzamide]
[1]; [10]
  IC50: 400 nM
[4]; [11]
  EC50: 1000 nM
[5]; Table 5F
  IC50: 17000 nM

## Nc1ccccc1NC(=O)c1ccc(CNc2nc(NCc3cccnc3)nc(NC3Cc4ccccc4C3)n2)cc1 [Cpd 30]
[1]; [8]
  IC50: 3000 nM
[4]; [9]
  EC50: 1000 nM
[5]; Table 5a
  IC50: 1000 nM

## CSc1cccc(NCc2ccc(C(=O)Nc3ccccc3N)cc2)c1 [Cpd 438, N-(2-Amino-phenyl)-4-[(3-methylsulfanyl-phenylamino)-methyl]-benzamide]
[1]; [10]
  IC50: 600 nM
[4]; [11]
  EC50: 1000 nM
[5]; Table 5F
  IC50: 5000 nM

## Nc1ccccc1NC(=O)c1ccc(Cn2c(=O)[nH]c3ccsc3c2=O)cc1 [Cpd 343, N-(2-Amino-phenyl)-4-(2,4-dioxo-1,4-dihydro-2H-thieno[3,2-d]pyrimidin-3-ylmethyl)-benzamide]
[1]; [10]
  IC50: 300 nM
[4]; [11]
  EC50: 1000 nM
[5]; Table 5F
  IC50: 500 nM

## Nc1ccccc1NC(=O)c1ccc(CNc2nc(Cl)nc3[nH]cnc23)cc1 [Cpd 332, N-(2-Amino-phenyl)-4-[(2-chloro-9H-purin-6-ylamino)-methyl]-benzamide]
[1]; [10]
  IC50: 1000 nM
[4]; [11]
  EC50: 5000 nM
[5]; Table 5F
  IC50: 400 nM

## COc1ccc2[nH]c(SCc3ccc4oc(C(=O)Nc5ccccc5N)cc4c3)nc2c1 [Cpd 591, 5-(5-Methoxy-1H-benzoimidazol-2-ylsulfanyl-methyl)-benzofuran-2-carboxylic acid (2-amino-phenyl)amide]
[1]; [10]
  IC50: 300 nM
[4]; [11]
  EC50: < 1000 nM
[5]; Table 5F
  IC50: 4000 nM

## CCCCn1cnc2c(NCc3ccc(C(=O)Nc4ccccc4N)cc3)nc(Cl)nc21 [Cpd 333, N-(2-Amino-phenyl)-4-[(9-butyl-2-chloro-9H-purin-6-ylamino)-methyl]-benzamide]
[1]; [10]
  IC50: 100 nM
[4]; [11]
  EC50: 1000 nM
[5]; Table 5F
  IC50: 2000 nM

## Nc1ccccc1NC(=O)c1ccc(CNc2nccc(N3CCOCC3)n2)cc1 [Cpd 435, N-(2-Amino-phenyl)-4-[(4-morpholin-4-yl-pyrimidin-2-ylamino)-methyl]-benzamide]
[1]; [10]
  IC50: 600 nM
[4]; [11]
  EC50: 1000 nM
[5]; Table 5F
  IC50: 3000 nM

## Nc1cscc1NC(=O)c1ccc(CNc2nc3ccc(OCCN4CCOCC4)cc3s2)cc1 [Cpd 573, N-(4-Amino-thiophen-3-yl)-4-{[6-(2-morpholin-4-yl-ethoxy)-benzothiazol-2-ylamino]-methyl}-benzamide]
[1]; [10]
  IC50: 400 nM
[4]; [11]
  EC50: 1000 nM
[5]; Table 5F
  IC50: 7000 nM

## Nc1ccccc1NC(=O)c1ccc(Cn2c(=O)[nH]c3ccccc3c2=O)cc1 [Cpd 157, N-(2-Amino-phenyl)-4-(2,4-dioxo-1,4-dihydro-2H-quinazolin-3-ylmethyl)-benzamide]
[1]; [6]
  IC50: 600 nM
[3]
  inhibition in vivo at 20 mg/kg: 66%
[4]; [7]
  EC50: 1000 nM

## Nc1ccccc1NC(=O)c1ccc(CNc2cccc(F)c2)cc1 [Cpd 417, N-(2-Amino-phenyl)-4-[(3-fluoro-phenylamino)-methyl]-benzamide]
[1]; [10]
  IC50: 1000 nM
[4]; [11]
  EC50: 1000 nM
[5]; Table 5F
  IC50: 3000 nM

## COc1cc(CNc2ccc(C(=O)Nc3ccccc3N)cc2)cc(OC)c1 [Cpd 393, N-(2-Amino-phenyl)-4-(3,5-dimethoxy-benzylamino)-benzamide]
[1]; [10]
  IC50: 600 nM
[4]; [11]
  EC50: 1000 nM
[5]; Table 5F
  IC50: 4000 nM

## COc1cc(NCc2ccc(C(=O)Nc3ccccc3N)cc2)c(C(C)=O)cc1OC [Cpd 441, 4-[(2-Acetyl-4,5-dimethoxy-phenylamino)-methyl]-N-(2-amino-phenyl)-benzamide]
[1]; [10]
  IC50: 800 nM
[4]; [11]
  EC50: 2000 nM
[5]; Table 5F
  IC50: 2000 nM

## CCn1c(=O)n(Cc2ccc(C(=O)Nc3ccccc3N)cc2)c(=O)c2sccc21 [Cpd 255]
[1]; [10]
  IC50: 800 nM
[4]; [11]
  EC50: 1000 nM
[5]; Table 5F
  IC50: 2000 nM

Source: patent US7868204B2, “Inhibitors of histone deacetylase” (MethylGene Inc., priority 2001, dated 2011)
